Like-named read-outs stand apart in the source and are kept apart here.
Test system: SARS-CoV-2
Test: Impedance-based (Maestro Z resistance/TEER) assay of SARS-CoV-2 cytopathic effect in Vero E6 monolayers
Format: cell-based
Settings: for IC90: Vero E6, MOI 0.01, normalized resistance at 48 hpi; for IC50: Vero E6, pre-treated 1 hour, MOI 0.01, normalized resistance at 48 hpi; for inhibitory activity against SARS-CoV-2 (percent inhibition relative to DMSO control): Vero E6, serial half-log dilutions, MOI 0.01, 48 hours
[1] = Severe acute respiratory syndrome coronavirus 2, Vero C1008
[2] = Severe acute respiratory syndrome coronavirus 2, Vero C1008, non-toxic doses, read-out: estimated IC50

CC(C)(O)CNc1ncc(-c2ccnc(Nc3ccncc3)n2)c(CC2CC2)n1 [VPS34-IN1]
IC90 [1]: 2520 nM | IC50 [2]: < 600 nM

CS(=O)(=O)O.O=C([C@@H]1CCCN(c2ccc3[nH]c(C4(n5cc(Cl)cn5)CC4)nc3n2)C1)N1CCCC1 [PF06424439]
inhibitory activity against SARS-CoV-2 (percent inhibition relative to DMSO control): Neither compound displayed any inhibitory activity

CCC(CC)COC(=O)[C@H](C)N[P@](=O)(OC[C@H]1O[C@@](C#N)(c2ccc3c(N)ncnn23)[C@H](O)[C@@H]1O)Oc1ccccc1 [Remdesivir]
IC50 (Severe acute respiratory syndrome coronavirus 2, Vero C1008, read-out: 50% inhibitory concentration (IC50)): 1540 nM

CC1(C)Oc2ncnc(N)c2N=C1c1ccc([C@H]2CC[C@H](CC(=O)O)CC2)cc1 [T863]
inhibitory activity against SARS-CoV-2 (percent inhibition relative to DMSO control): Neither compound displayed any inhibitory activity

CCCCCCCCCCC[C@@H](C[C@@H]1OC(=O)[C@H]1CCCCCC)OC(=O)[C@H](CC(C)C)NC=O [Orlistat]
completeness of inhibition of viral cytopathic effects (with 500 µM, Vero E6): complete inhibition was not achieved

Nc1ncc(-c2ccnc(Nc3ccncc3)n2)c(CC2CC2)n1 [PIK-III]
IC90 [1]: 1810 nM | IC50 [2]: < 600 nM

CCC/C=C/C/C=C/C=C/C=N/NN=O [Triacsin C]
IC50 (read-out: 50% inhibitory concentration (IC50)): ~20000 nM

From patent publication US20230293521A1, “METHODS FOR SCREENING NOVEL CORONAVIRUS ANTIVIRALS AND METHODS OF USING ANTIVIRALS FOR THE TREATMENT OF CORONAVIRUS INFECTIONS” (priority 2020, published 2023)
